Patent US20200181117A1, “SUBSTITUTED 3-HETEROARYLOXY-1H-PYRAZOLES AND SALTS THEREOF AND THEIR USE AS HERBICIDAL ACTIVE SUBSTANCES” (BAYER CROPSCIENCE AKTIENGESELLSCHAFT, priority 2017, published 2020)

Assays:
Type in all cases: in vivo
[1] = tested on: Amaranthus retroflexus; assay: Post-emergence herbicidal action; details: 1280 g/ha, rated visually after about 3 weeks vs untreated controls
Summary of the method: (§1)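 Greenhouse weeds in sandy loam sprayed at one-leaf stage (2-3 weeks after sowing) with WP or EC formulations plus 0.5% additive, 600 l/ha water, 1280 g/ha. Activity scored visually about 3 weeks later versus untreated controls (100% = dead, 0% = like control).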

[2] = tested on: Echinochloa crus-galli; assay: Post-emergence herbicidal action; details: 1280 g/ha, rated visually after about 3 weeks vs untreated controls
Summary of the method: as §1

[3] = tested on: Ipomoea purpurea; assay: Post-emergence herbicidal action; details: 1280 g/ha, rated visually after about 3 weeks vs untreated controls
Summary of the method: as §1

[4] = tested on: Pharbitis purpurea; assay: Post-emergence herbicidal action; details: 1280 g/ha, rated visually after about 3 weeks vs untreated controls
Summary of the method: as §1

[5] = tested on: Viola tricolor; assay: Post-emergence herbicidal action; details: 1280 g/ha, rated visually after about 3 weeks vs untreated controls
Summary of the method: as §1

[6] = tested on: Abutilon theophrasti; assay: Pre-emergence herbicidal action; details: 1280 g/ha, scored visually after about 3 weeks vs untreated controls
Summary of the method: (§2)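 Pre-emergence soil-surface spray, 1280 g/ha, WP or EC formulation, 0.5% additive, 600 l/ha water. Greenhouse, ~3 wk. Visual score, % vs untreated (0% = like control, 100% = dead).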

[7] = tested on: Alopecurus myosuroides; assay: Pre-emergence herbicidal action; details: 1280 g/ha, scored visually after about 3 weeks vs untreated controls
Summary of the method: as §2

[8] = tested on: Amaranthus retroflexus; assay: Pre-emergence herbicidal action; details: 1280 g/ha, scored visually after about 3 weeks vs untreated controls
Summary of the method: as §2

[9] = tested on: Echinochloa crus-galli; assay: Pre-emergence herbicidal action; details: 1280 g/ha, scored visually after about 3 weeks vs untreated controls
Summary of the method: as §2

[10] = tested on: Hordeum murinum; assay: Pre-emergence herbicidal action; details: 1280 g/ha, scored visually after about 3 weeks vs untreated controls
Summary of the method: as §2

[11] = tested on: Matricaria inodora; assay: Pre-emergence herbicidal action; details: 1280 g/ha, scored visually after about 3 weeks vs untreated controls
Summary of the method: as §2

[12] = tested on: Polygonum convolvulus; assay: Pre-emergence herbicidal action; details: 1280 g/ha, scored visually after about 3 weeks vs untreated controls
Summary of the method: as §2

[13] = tested on: Setaria viridis; assay: Pre-emergence herbicidal action; details: 1280 g/ha, scored visually after about 3 weeks vs untreated controls
Summary of the method: as §2

[14] = tested on: Stellaria media; assay: Pre-emergence herbicidal action; details: 1280 g/ha, scored visually after about 3 weeks vs untreated controls
Summary of the method: as §2

[15] = tested on: Veronica persica; assay: Pre-emergence herbicidal action; details: 1280 g/ha, scored visually after about 3 weeks vs untreated controls
Summary of the method: as §2

[16] = tested on: Viola tricolor; assay: Pre-emergence herbicidal action; details: 1280 g/ha, scored visually after about 3 weeks vs untreated controls
Summary of the method: as §2

[17] = tested on: Abutilon theophrasti; assay: Post-emergence herbicidal action; details: 1280 g/ha, rated visually after about 3 weeks vs untreated controls
Summary of the method: as §1

[18] = tested on: Alopecurus myosuroides; assay: Post-emergence herbicidal action; details: 1280 g/ha, rated visually after about 3 weeks vs untreated controls
Summary of the method: as §1

[19] = tested on: Avena fatua; assay: Post-emergence herbicidal action; details: 1280 g/ha, rated visually after about 3 weeks vs untreated controls
Summary of the method: as §1

[20] = tested on: Polygonum convolvulus; assay: Post-emergence herbicidal action; details: 1280 g/ha, rated visually after about 3 weeks vs untreated controls
Summary of the method: as §1

[21] = tested on: Setaria viridis; assay: Post-emergence herbicidal action; details: 1280 g/ha, rated visually after about 3 weeks vs untreated controls
Summary of the method: as §1

[22] = tested on: Stellaria media; assay: Post-emergence herbicidal action; details: 1280 g/ha, rated visually after about 3 weeks vs untreated controls
Summary of the method: as §1

[23] = tested on: Veronica persica; assay: Post-emergence herbicidal action; details: 1280 g/ha, rated visually after about 3 weeks vs untreated controls
Summary of the method: as §1

[24] = tested on: Avena fatua; assay: Pre-emergence herbicidal action; details: 1280 g/ha, scored visually after about 3 weeks vs untreated controls
Summary of the method: as §2

[25] = tested on: Lolium rigidum; assay: Pre-emergence herbicidal action; details: 1280 g/ha, scored visually after about 3 weeks vs untreated controls
Summary of the method: as §2

[26] = tested on: Lolium rigidum; assay: Post-emergence herbicidal action; details: 1280 g/ha, rated visually after about 3 weeks vs untreated controls
Summary of the method: as §1

Row | SMILES | herbicidal activity on Amaranthus retroflexus [1] [%] | herbicidal activity on Echinochloa crus-galli [2] [%] | herbicidal activity on Ipomoea purpurea [3] [%] | herbicidal activity on Pharbitis purpurea [4] [%] | herbicidal activity on Viola tricolor [5] [%] | herbicidal activity on Abutilon theophrasti [6] [%] | herbicidal activity on Alopecurus myosuroides [7] [%] | herbicidal activity on Amaranthus retroflexus [8] [%] | herbicidal activity on Echinochloa crus-galli [9] [%] | herbicidal activity on Hordeum murinum [10] [%] | herbicidal activity on Matricaria inodora [11] [%] | herbicidal activity on Polygonum convolvulus [12] [%] | herbicidal activity on Setaria viridis [13] [%] | herbicidal activity on Stellaria media [14] [%] | herbicidal activity on Veronica persica [15] [%] | herbicidal activity on Viola tricolor [16] [%] | herbicidal activity on Alopecurus myosuroides [18] [%] | herbicidal activity on Avena fatua [19] [%] | herbicidal activity on Avena fatua [24] [%] | herbicidal activity on Lolium rigidum [25] [%] | further results
1 | COc1cnc(Oc2nn(C)c(C)c2Sc2ccc(Cl)cc2)nc1 [Example I-066] | 80 | 80 | 80 | 80 | 100 | 90 | 80 | 100 | 100 | 100 | 100 | 90 | 100 | 100 | 100 | 100 | – | – | – | – | –
2 | Cc1c(Sc2ccc(F)c(F)c2)c(Oc2cnccn2)nn1C [Example I-141] | 100 | 100 | – | 80 | 90 | 100 | 90 | 100 | 100 | 80 | 100 | 100 | 100 | 90 | 100 | 100 | 80 | 80 | 80 | 90 | herbicidal activity on Abutilon theophrasti [17]: 90%; herbicidal activity on Polygonum convolvulus [20]: 100%; herbicidal activity on Setaria viridis [21]: 90%; herbicidal activity on Stellaria media [22]: 100%; herbicidal activity on Veronica persica [23]: 100%
3 | CCc1c(Sc2ccc(F)cc2F)c(Oc2ncc(OC)cn2)nn1C [Example I-207] | 90 | – | 90 | 90 | 80 | 80 | – | 100 | – | – | – | 80 | 100 | 100 | 100 | 100 | – | – | – | – | –
4 | Cc1c(Sc2cccc(F)c2)c(Oc2ncc(F)cn2)nn1C [Example I-158] | 100 | 100 | – | 80 | 100 | 100 | 100 | 100 | 100 | 100 | 100 | 100 | 100 | 100 | 100 | 100 | 100 | 80 | 100 | 100 | herbicidal activity on Abutilon theophrasti [17]: 90%; herbicidal activity on Lolium rigidum [26]: 100%; herbicidal activity on Polygonum convolvulus [20]: 100%; herbicidal activity on Setaria viridis [21]: 100%; herbicidal activity on Stellaria media [22]: 90%
5 | Cn1cc(Sc2ccc(F)cc2)c(Oc2ncc(Cl)cn2)n1 [Example I-095] | 100 | 80 | 80 | 80 | 100 | 100 | 100 | 100 | 100 | 100 | 100 | 90 | 100 | 100 | 100 | 100 | – | – | 100 | 100 | –
6 | COc1cnc(Oc2nn(C)c(C)c2Sc2ccc(F)cc2)nc1 [Example I-089] | – | – | – | – | – | 100 | 90 | 100 | 100 | 90 | 100 | 90 | 100 | 100 | 100 | 100 | 90 | 80 | 80 | 90 | herbicidal activity on Polygonum convolvulus [20]: 90%; herbicidal activity on Setaria viridis [21]: 80%
7 | Cc1c(Sc2ccc(F)cc2Cl)c(Oc2ncccn2)nn1C [Example I-135] | 100 | – | 80 | 80 | 100 | 100 | 100 | 100 | 100 | 80 | 90 | 90 | 100 | 100 | 100 | 100 | – | – | 80 | 90 | herbicidal activity on Stellaria media [22]: 90%
